Measurements from patent US9326973B2, “Hepatitis C virus inhibitors” (priority 2012, dated 2016).

What follows are molecules tested on HCV replicon, genotype-1a variant with glutamine 30 changed to glutamate in the NS5A protein (assay: microbe, parasite or virus in culture). Details: HCV replicon genotype 1a Q30E (Q→E) variant; test compound titrated with an NS5A-targeting compound (BMS-790052 fixed at 200 nM); ranking of synergist activity.
Assay type: cell-based, HCV genotype 1a
Method in brief: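 Synergy was assessed by combining several fixed amounts of an NS5A-targeting compound with a titration of the second compound of interest.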

With CC(C)(C)OC(=O)N1CCC[C@@H]1C(=O)N[C@H](c1nc(-c2ccc(-c3ccc(-c4c[nH]c([C@@H](NC(=O)[C@H]5CCCN5C(=O)OC(C)(C)C)C(C)(C)C)n4)cc3)cc2)c[nH]1)C(C)(C)C [Compound W-87] as the molecule, how does the “Fold-Synergistic 1a (Q30E)” value read?
Its value is >100 fold.

CC(C)(C)[C@H](NC(=O)C1CCC(=O)CC1)c1nc(-c2ccc(-c3ccc(-c4c[nH]c([C@@H](NC(=O)C5CCC(=O)CC5)C(C)(C)C)n4)cc3)cc2)c[nH]1 [Compound W-173] was tested. Which “Fold-Synergistic 1a (Q30E)” value did it give?
Its value is >100 fold.

Which “Fold-Synergistic 1a (Q30E)” value does the source give for CC(C)(C)OC(=O)N1C[C@H](O)C[C@H]1C(=O)N[C@H](c1nc(-c2ccc(-c3ccc(-c4c[nH]c([C@@H](NC(=O)[C@@H]5C[C@@H](O)CN5C(=O)OC(C)(C)C)C5(C)CC5)n4)cc3)cc2)c[nH]1)C1(C)CC1 [Compound W-95] here?
The value was >100 fold.

With CC(C)(C)[C@H](NC(=O)C1CC(=O)C1)c1nc(-c2ccc(-c3ccc(-c4c[nH]c([C@@H](NC(=O)C5CC(=O)C5)C(C)(C)C)n4)cc3)cc2)c[nH]1 [Compound W-171] as the molecule, how does the “Fold-Synergistic 1a (Q30E)” value read?
Its value is >100 fold.

With CC(C)(C)OC(=O)N1CCC(C(=O)N[C@H](c2nc(-c3ccc(-c4ccc(-c5c[nH]c([C@@H](NC(=O)C6CCN(C(=O)OC(C)(C)C)CC6)C(C)(C)C)n5)cc4)cc3)c[nH]2)C(C)(C)C)CC1 [Compound S-264] as the molecule, how does the “Fold-Synergistic 1a (Q30E)” value read?
The value was >100 fold.

Which “Fold-Synergistic 1a (Q30E)” value does the source give for CC(C)(C)[C@H](NC(=O)C(F)(F)C1(O)CCOCC1)c1nc(-c2ccc(-c3ccc(-c4c[nH]c([C@@H](NC(=O)C(F)(F)C5(O)CCOCC5)C(C)(C)C)n4)cc3)cc2)c[nH]1 [Compound P-163] here?
Its value is >100 fold.

For COC(=O)N[C@@H](C(=O)N[C@H](c1nc(-c2ccc3cc(-c4ccc(-c5cnc([C@@H](NC(=O)[C@H](NC(=O)OC)C(C)C)C(C)(C)C)[nH]5)cc4)ccc3c2)c[nH]1)C(C)(C)C)C(C)C [Compound N-8], which “Fold-Synergistic 1a (Q30E)” value is on record?
The value was >10 fold.

How did the “Fold-Synergistic 1a (Q30E)” value turn out when C=C1C[C@@H](C(=O)N[C@H](c2nc(-c3ccc(-c4ccc(-c5c[nH]c([C@@H](NC(=O)[C@@H]6CC(=C)CN6C(=O)OC(C)(C)C)C(C)C)n5)cc4)cc3)c[nH]2)C(C)C)N(C(=O)OC(C)(C)C)C1 [Compound W-89] was run?
Its value is >100 fold.

For COC(=O)C1([C@H](CC(C)C)C(=O)N[C@H](c2nc(-c3ccc(-c4ccc(-c5c[nH]c([C@@H](NC(=O)[C@@H](CC(C)C)C6(C(=O)OC)CC=CC6)C(C)(C)C)n5)cc4)cc3)c[nH]2)C(C)(C)C)CC=CC1 [Compound S-294], which “Fold-Synergistic 1a (Q30E)” value is on record?
The value was >100 fold.

With CC(C)(C)[C@H](NC(=O)[C@@]1(C)CC(F)(F)CO1)c1nc(-c2ccc(-c3ccc(-c4c[nH]c([C@@H](NC(=O)[C@@]5(C)CC(F)(F)CO5)C(C)(C)C)n4)cc3)cc2)c[nH]1 [Compound Y-77] as the molecule, how does the “Fold-Synergistic 1a (Q30E)” value read?
The value was >100 fold.

For CC(C)N(C(=O)OC1(C(=O)N[C@H](c2nc(-c3ccc(-c4ccc(-c5c[nH]c([C@@H](NC(=O)C6(OC(=O)N(C(C)C)C(C)C)CC6)C(C)(C)C)n5)cc4)cc3)c[nH]2)C(C)(C)C)CC1)C(C)C [Compound L-38], which “Fold-Synergistic 1a (Q30E)” value is on record?
Its value is >100 fold.

How did the “Fold-Synergistic 1a (Q30E)” value turn out when CC(C)CC(=O)N[C@@H](Cc1ccc2ccccc2c1)c1nc(-c2ccc(-c3ccc(-c4c[nH]c([C@H](Cc5ccc6ccccc6c5)NC(=O)CC(C)C)n4)cc3)cc2)c[nH]1 [Compound P-8] was run?
The value was <10 fold.

With O=C(c1ccc2ccccc2n1)N1CCC[C@H]1c1ncc(-c2ccc(-c3ccc(-c4cnc([C@@H]5CCCN5C(=O)c5ccc6ccccc6n5)[nH]4)cc3)cc2)[nH]1 [Compound S-123] as the molecule, how does the “Fold-Synergistic 1a (Q30E)” value read?
Its value is >100 fold.

With O=C(N1CCC[C@H]1c1ncc(-c2ccc(-c3ccc(-c4cnc([C@@H]5CCCN5C(=O)C5(c6ccccc6)CC5)[nH]4)cc3)cc2)[nH]1)C1(c2ccccc2)CC1 [Compound S-159] as the molecule, how does the “Fold-Synergistic 1a (Q30E)” value read?
Its value is <10 fold.

With N#CC1(C(=O)N2CCC[C@H]2c2ncc(-c3ccc(-c4ccc(-c5cnc([C@@H]6CCCN6C(=O)C6(C#N)CC6)[nH]5)cc4)cc3)[nH]2)CC1 [Compound S-194] as the molecule, how does the “Fold-Synergistic 1a (Q30E)” value read?
The value was <10 fold.

How did the “Fold-Synergistic 1a (Q30E)” value turn out when CC(C)(C)OC(=O)N1CCC[C@]1(C)C(=O)N[C@H](c1nc(-c2ccc(-c3ccc(-c4c[nH]c([C@@H](NC(=O)[C@@]5(C)CCCN5C(=O)OC(C)(C)C)C(C)(C)C)n4)cc3)cc2)c[nH]1)C(C)(C)C [Compound L-15] was run?
Its value is >100 fold.

With CC1(C(=O)N[C@H](c2nc(-c3ccc(-c4ccc(-c5c[nH]c([C@@H](NC(=O)C6(C)COC(c7ccccc7)OC6)C(C)(C)C)n5)cc4)cc3)c[nH]2)C(C)(C)C)COC(c2ccccc2)OC1 (stereo partly drawn) [Compound S-280] as the molecule, how does the “Fold-Synergistic 1a (Q30E)” value read?
Its value is >100 fold.

CC(C)(C)[C@H](NC(=O)C1(CF)CCCCO1)c1nc(-c2ccc(-c3ccc(-c4c[nH]c([C@@H](NC(=O)C5(CF)CCCCO5)C(C)(C)C)n4)cc3)cc2)c[nH]1 (stereo partly drawn) [Compound P-178] was tested. Which “Fold-Synergistic 1a (Q30E)” value did it give?
Its value is >100 fold.

With O=C(c1ccnnc1)N1CCC[C@H]1c1ncc(-c2ccc(-c3ccc(-c4cnc([C@@H]5CCCN5C(=O)c5ccnnc5)[nH]4)cc3)cc2)[nH]1 [Compound S-187] as the molecule, how does the “Fold-Synergistic 1a (Q30E)” value read?
The value was <10 fold.

With COc1cccc(C2(C(=O)N[C@H](c3nc(-c4ccc(-c5ccc(-c6c[nH]c([C@@H](NC(=O)C7(c8cccc(OC)c8)CCC(C)CC7)C(C)(C)C)n6)cc5)cc4)c[nH]3)C(C)(C)C)CCC(C)CC2)c1 (stereo partly drawn) [Compound S-289] as the molecule, how does the “Fold-Synergistic 1a (Q30E)” value read?
Its value is >100 fold.

With CC(=O)N(C)C1(C(=O)N[C@H](c2nc(-c3ccc(-c4ccc(-c5c[nH]c([C@@H](NC(=O)C6(N(C)C(C)=O)CC6)C(C)(C)C)n5)cc4)cc3)c[nH]2)C(C)(C)C)CC1 [Compound L-11] as the molecule, how does the “Fold-Synergistic 1a (Q30E)” value read?
The value was >100 fold.

With O=C(c1nccc2c(Cl)cccc12)N1CCC[C@H]1c1ncc(-c2ccc(-c3ccc(-c4cnc([C@@H]5CCCN5C(=O)c5nccc6c(Cl)cccc56)[nH]4)cc3)cc2)[nH]1 [Compound S-206] as the molecule, how does the “Fold-Synergistic 1a (Q30E)” value read?
The value was >100 fold.

How did the “Fold-Synergistic 1a (Q30E)” value turn out when O=C(Cc1ccc(-c2ccccc2)cc1)N1CCC[C@H]1c1ncc(-c2ccc(-c3ccc(-c4cnc([C@@H]5CCCN5C(=O)Cc5ccc(-c6ccccc6)cc5)[nH]4)cc3)cc2)[nH]1 [Compound S-147] was run?
Its value is <10 fold.

Which “Fold-Synergistic 1a (Q30E)” value does the source give for CCC(F)(F)C(=O)N[C@H](c1nc(-c2ccc(-c3ccc(-c4c[nH]c([C@@H](NC(=O)C(F)(F)CC)C(C)(C)C)n4)cc3)cc2)c[nH]1)C(C)(C)C [Compound S-284] here?
Its value is >100 fold.

With CC(C)(C)OC(=O)N1C[C@@H](O)C[C@H]1C(=O)N[C@H](c1nc(-c2ccc(-c3ccc(-c4c[nH]c([C@@H](NC(=O)[C@@H]5C[C@H](O)CN5C(=O)OC(C)(C)C)C(C)(C)C)n4)cc3)cc2)c[nH]1)C(C)(C)C [Compound W-98] as the molecule, how does the “Fold-Synergistic 1a (Q30E)” value read?
Its value is >100 fold.

Which “Fold-Synergistic 1a (Q30E)” value does the source give for Cc1cc(-c2ccc(-c3c[nH]c([C@@H](NC(=O)C4(C)CCC(F)(F)CC4)C(C)C)n3)cc2)ccc1-c1c[nH]c([C@@H](NC(=O)C2(C)CCC(F)(F)CC2)C(C)C)n1 [Compound N-84] here?
The value was >100 fold.

CC(C)(C)[C@H](Nc1nc2ccccc2s1)c1nc(-c2ccc(-c3ccc(-c4c[nH]c([C@@H](Nc5nc6ccccc6s5)C(C)(C)C)n4)cc3)cc2)c[nH]1 [Compound W-183] was tested. Which “Fold-Synergistic 1a (Q30E)” value did it give?
Its value is >10 fold.

CC(C)[C@H](NC(=O)c1cc(Cl)ccc1F)c1nc(-c2ccc3c(c2)CCc2cc(-c4c[nH]c([C@@H](NC(=O)c5cc(Cl)ccc5F)C(C)C)n4)ccc2-3)c[nH]1 [Compound N-76] was tested. Which “Fold-Synergistic 1a (Q30E)” value did it give?
Its value is >100 fold.

How did the “Fold-Synergistic 1a (Q30E)” value turn out when O=C(c1nc2ccccc2s1)N1CCC[C@H]1c1ncc(-c2ccc(-c3ccc(-c4cnc([C@@H]5CCCN5C(=O)c5nc6ccccc6s5)[nH]4)cc3)cc2)[nH]1 [Compound S-141] was run?
The value was >10 fold.

How did the “Fold-Synergistic 1a (Q30E)” value turn out when CC(C)(C)OC(=O)NC1CCC(C(=O)N[C@H](c2nc(-c3ccc(-c4ccc(-c5c[nH]c([C@@H](NC(=O)C6CCC(NC(=O)OC(C)(C)C)CC6)C(C)(C)C)n5)cc4)cc3)c[nH]2)C(C)(C)C)CC1 (stereo partly drawn) [Compound S-270] was run?
Its value is >100 fold.

Which “Fold-Synergistic 1a (Q30E)” value does the source give for C[C@H]1CCN(C(=O)C2CCC(F)(F)CC2)[C@@H]1c1nc(-c2ccc(-c3ccc(-c4c[nH]c([C@@H]5[C@@H](C)CCN5C(=O)C5CCC(F)(F)CC5)n4)cc3)cc2)c[nH]1 [Compound W-188] here?
The value was >10 fold.

How did the “Fold-Synergistic 1a (Q30E)” value turn out when CC(C)[C@H](NC(=O)C(=O)N(C(C)C)C1CC1)c1nc(-c2ccc(-c3ccc(-c4c[nH]c([C@@H](NC(=O)C(=O)N(C(C)C)C5CC5)C(C)C)n4)cc3)cc2)c[nH]1 [Compound W-55] was run?
The value was >100 fold.

CC1(C)CCCC(C)(C(=O)N[C@H](c2nc(-c3ccc(-c4ccc(-c5c[nH]c([C@@H](NC(=O)C6(C)CCCC(C)(C)O6)C(C)(C)C)n5)cc4)cc3)c[nH]2)C(C)(C)C)O1 (stereo partly drawn) [Compound W-167] was tested. Which “Fold-Synergistic 1a (Q30E)” value did it give?
Its value is >100 fold.

Which “Fold-Synergistic 1a (Q30E)” value does the source give for C[C@H]1C[C@H](C)OC(C)(C(=O)N[C@H](c2nc(-c3ccc(-c4ccc(-c5c[nH]c([C@@H](NC(=O)C6(C)O[C@@H](C)C[C@H](C)O6)C(C)(C)C)n5)cc4)cc3)c[nH]2)C(C)(C)C)O1 (stereo partly drawn) [Compound L-85] here?
The value was >100 fold.

For CC1(C)CCCC(C)(C(=O)N[C@H](c2nc(-c3ccc(-c4ccc(-c5c[nH]c([C@@H](NC(=O)C6(C)CCCC(C)(C)O6)C(C)(C)C)n5)cc4)cc3)c[nH]2)C(C)(C)C)O1 (stereo partly drawn) [Compound W-165], which “Fold-Synergistic 1a (Q30E)” value is on record?
The value was >100 fold.

How did the “Fold-Synergistic 1a (Q30E)” value turn out when CC(C)(C)[C@H](NC(=O)C1(N2CCOC2=O)CC1)c1nc(-c2ccc(-c3ccc(-c4c[nH]c([C@@H](NC(=O)C5(N6CCOC6=O)CC5)C(C)(C)C)n4)cc3)cc2)c[nH]1 [Compound L-26] was run?
The value was >100 fold.

Which “Fold-Synergistic 1a (Q30E)” value does the source give for CC(C)[C@H](NC(=O)c1cc(Cl)ccc1F)c1nc(-c2ccc3c(c2)Cc2cc(-c4c[nH]c([C@@H](NC(=O)c5cc(Cl)ccc5F)C(C)C)n4)ccc2-3)c[nH]1 [Compound N-73] here?
Its value is >100 fold.

For COc1cccc2c(C(=O)N3C(c4ncc(-c5ccc(-c6ccc(-c7cnc(C8C[C@H]9C[C@H]9N8C(=O)c8nc(Cl)cc9c(OC)cccc89)[nH]7)cc6)cc5)[nH]4)C[C@H]4C[C@H]43)nc(Cl)cc12 (stereo partly drawn) [Compound P-49], which “Fold-Synergistic 1a (Q30E)” value is on record?
The value was >100 fold.

O=C(CC1CCCC1)N1CCC[C@H]1c1ncc(-c2ccc(-c3ccc(-c4cnc([C@@H]5CCCN5C(=O)CC5CCCC5)[nH]4)cc3)cc2)[nH]1 [Compound S-165] was tested. Which “Fold-Synergistic 1a (Q30E)” value did it give?
Its value is >10 fold.
